Source: paper PMC5880945, “D-Arg^0-Bradykinin-Arg-Arg, a Latent Vasoactive Bradykinin B2 Receptor Agonist Metabolically Activated by Carboxypeptidases” (Frontiers in Pharmacology, 2018)
pEC50: −log10 of the molar value. “Also recorded” adds a separate entry of the source. Like-named read-outs stand apart in the source and are kept apart here. Square brackets hold non-standard residues; d marks the D form. Peptide text beside a SMILES is read from it.

Columns and labels:
[1] = tested on: human ACE-mCherry fusion protein; test: Competition of a fluorogenic ACE substrate by synthetic kinins (recombinant ACE-mCherry); assay type: biochemical; details: 15 min, 37°C
Experimental: The source of enzyme was whole HEK 293a cells grown in 24-well plates and transfected as described with a vector coding for the human ACE-mCherry fusion protein, an active enzyme ([Charest-Morin and Marceau, 2016]). The culture medium was removed from cell wells, which were rinsed twice with PBS. The fluorogenic substrate (final concentration 20 μM), and, optionally, a competitor (BK, r-BK, or r-BK-RR in variable concentrations, or the ACE inhibitor enalaprilat 1 μM) were added in 250 μl PBS in each well; the plates were then incubated for 15 min at 37°C. At this point, the well supernatants were transferred in Eppendorf tubes, centrifuged 30 s at 12500 rpm to remove debris and 100 μl of this fluid transferred in wells of 96-well plate (black background) to read the fluorescence (excitation 320 nm, emission 420 nm) using a TECAN Infinite® 200 PRO microplate reader. Results were expressed as the percent of the fluorescence in wells containing ACE-mCherry and the substrate without competitors. Controls included mock-transfected cells and enalaprilat-treated cells.

[2] = tested on: B2R, human isolated umbilical vein; test: Human umbilical vein contractility assay (bioassay for the endogenous B2R); details: for pEC50: 95% confidence limits in parentheses, read-out: contractile EC50; for contractile potency, in words: human umbilical vein
Experimental: The institutional research ethics board (CHU de Québec) approved the anonymous use of human umbilical cord segments obtained after elective cesarean section deliveries (file number: 2012-323). Informed written consent was obtained from mothers. Umbilical vein rings, used as a contractile bioassay for the BK B2R, were prepared and suspended in organ baths and submitted to equilibration in Krebs’ solution as described ([Marceau et al., 1994]; [Gera et al., 2011]). The vascular preparation was used to assess the effect of the peptidase inhibitors (introduced 30 min before the agonist) on the apparent potency of r-BK and r-BK-RR. The full cumulative concentration-effect curves were recorded for each peptide; a large concentration of BK (9.4 μM) was added to record the maximal contractile effect mediated by the B2Rs for low potency agonists. Tissues were used only once and discarded; controls curves were obtained from other vascular rings from the same vein.
(§1) Results are presented as means ± SEM. Radioligand binding data were fitted by non-linear regression to a one-site competition equation using a least-square method (Prism 5.0, GraphPad Software Inc., San Diego, CA, United States) and IC50 values calculated from this procedure. The same computer program was used to draw concentration-effect curves generated with the contractility assay (least square fitting of sigmoidal dose-response equation with variable slope) and to derive contractile EC50 values. Data describing the dose-response relationship of novel peptides vs. hypotension and heart rate changes, the baseline values of heart rate and mean arterial blood pressure and the effect of drugs on the hemodynamic responses to r-B K and r-BK-RR were assessed by using one-way analysis of variance (ANOVA) followed by the Dunnett’s test (repeated comparison with a common control; Prism 5.0 software).

[3] = biological target: T1, rat myc-B2R (bradykinin B2 receptor) (Rattus norvegicus, UniProt P25023); test: [3H]BK binding competition assay; details: for affinity for rat B2R, in words: rat myc-B2R
T1 construct: expressed in transfected cells
T1 sequence (P25023 1-396): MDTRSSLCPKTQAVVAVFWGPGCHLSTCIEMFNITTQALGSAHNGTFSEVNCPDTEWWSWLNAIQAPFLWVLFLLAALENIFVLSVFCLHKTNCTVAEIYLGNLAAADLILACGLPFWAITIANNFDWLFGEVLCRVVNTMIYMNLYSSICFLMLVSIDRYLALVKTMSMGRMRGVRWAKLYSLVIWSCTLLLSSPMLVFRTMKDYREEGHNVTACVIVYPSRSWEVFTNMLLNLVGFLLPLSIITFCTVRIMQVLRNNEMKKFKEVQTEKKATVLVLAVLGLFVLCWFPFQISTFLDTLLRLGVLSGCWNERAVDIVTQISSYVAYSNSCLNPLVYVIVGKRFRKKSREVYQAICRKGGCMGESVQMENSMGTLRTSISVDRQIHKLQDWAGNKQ
Experimental: Affinity for the B2R was evaluated using a radioligand binding competition assay performed at 0°C in the presence of peptidase inhibitors that included captopril and PMSF ([Charest-Morin et al., 2014]). Briefly, the binding of 3 nM [^3H]bradykinin (Perkin Elmer Life Sciences; 90 Ci/mmol) to adherent intact Human Embryonic Kidney (HEK 293) cells stably expressing the myc-tagged rat B2R construction ([Charest-Morin et al., 2017]) was applied to construct binding competition curves for a series of unlabeled peptides.
as §1

[4] = tested on: GFP-tagged rabbit B2R (B2R-GFP); test: B2R-GFP endocytosis and recycling, epifluorescence microscopy, HEK 293 cells; assay type: cell-based; details: 30 min vs 3 h of stimulation
[5] = + Plummer’s inhibitor 1 μM, 30 min before agonist
[6] = + enalaprilat 1 μM + Plummer’s inhibitor 1 μM, 30 min before agonist
[7] = + enalaprilat 1 μM, 30 min before agonist

Structure (SMILES) | competition for recombinant ACE, relative affinity, in words ([1]; Abz-Phe-Arg-Lys(Dnp)-Pro-OH 20 μM, HEK 293a cells with ACE-mCherry, PBS, fluorescence ex 320 / em 420 nm) | effect of combination Plummer’s inhibitor + enalaprilat vs. enalaprilat alone, in words ([2]; 1 μM each) | pEC50 [2, 5] | pEC50 [2, 6] | pEC50 [2, 7] | effect of Plummer’s inhibitor on apparent contractile potency, in words ([2]; Plummer’s inhibitor 1 μM) | pEC50 ([2]; control (no inhibitor)) | contractile potency, in words [2] | competition on the binding of [3H]BK to B2R, in words ([3]; 100 nM) | affinity for rat B2R, in words ([3]; [3H]BK binding competition) | decrease of receptor affinity (less potent) ([3]; r-BK-RR, [3H]BK binding competition, rat B2R) [fold] | inhibition of ACE substrate hydrolysis, in words ([1]; competitor 20 μM (equal to substrate concentration), fluorescence) | effect of enalaprilat and/or Plummer’s inhibitor on contractile response, in words ([2]; enalaprilat and/or Plummer’s inhibitor, 1 μM each) | persistence of B2R-GFP endocytosis, in words [4]
N=C(N)NCCC[C@@H](N)C(=O)N[C@@H](CCCNC(=N)N)C(=O)N1CCC[C@H]1C(=O)N1CCC[C@H]1C(=O)NCC(=O)N[C@@H](Cc1ccccc1)C(=O)N[C@@H](CO)C(=O)N1CCC[C@H]1C(=O)N[C@@H](Cc1ccccc1)C(=O)N[C@@H](CCCNC(=N)N)C(=O)N[C@@H](CCCNC(=N)N)C(=O)N[C@@H](CCCNC(=N)N)C(=O)O [r-BK-RR, D-Arg^0-BK-Arg-Arg] (H-[dR]RPPGFSPFRRR-OH) | only slightly less potent than the two other peptides | not significantly more effective than enalaprilat alone | 6.07 | 5.75 | 5.82 | only slightly decreased the apparent potency | 6.37 | less potent than r-BK but more potent than anticipated from the radioligand binding competition assay | little competition | direct micromolar affinity; also recorded: very little direct affinity for B2R | 61 | – | – | –
N=C(N)NCCC[C@@H](N)C(=O)N[C@@H](CCCNC(=N)N)C(=O)N1CCC[C@H]1C(=O)N1CCC[C@H]1C(=O)NCC(=O)N[C@@H](Cc1ccccc1)C(=O)N[C@@H](CO)C(=O)N1CCC[C@H]1C(=O)N[C@@H](Cc1ccccc1)C(=O)N[C@@H](CCCNC(=N)N)C(=O)O [r-BK, D-Arg^0-BK] (H-[dR]RPPGFSPFR-OH) | – | – | 7.16 | 7.35 | 7.21 | – | 7.20 | potent contractile agent | – | practically equal to that of BK | – | nearly complete inhibition | essentially unaffected; also recorded: enalaprilat failed to potentiate r-BK | reversible as a function of incubation time, as that of BK; also recorded: not more persistent
